The record followed here is ChEMBL document CHEMBL1909498, “Secoiridoid glucosides and related compounds from Syringa reticulata and their antioxidant activities” (Bioorg Med Chem Lett, 2011).

Broadly, the EC50 is the concentration that produces a half-maximal response.

Assay [1] has as its system Radical scavenging activity. Briefly: Antioxidant activity assessed as DPPH radical scavenging activity after 30 mins by spectrophotometric analysis. The format is functional.
Assay [2] can be described thus: Antioxidant activity assessed as superoxide radical scavenging activity after 20 mins by spectrophotometric analysis. The format is functional.

For `COc1cc([C@H]2OC[C@H]3[C@@H]2CO[C@@H]3c2cc(OC)c(O[C@@H]3O[C@H](CO)[C@@H](O)[C@H](O)[C@H]3O)c(OC)c2)cc(OC)c1O`, the EC50 in assay [1] and in assay [2] was > 100 µM each time.

Take `COc1cc([C@H]2OC[C@H]3[C@@H]2CO[C@@H]3c2ccc(O[C@@H]3O[C@H](CO)[C@@H](O)[C@H](O)[C@H]3O)c(OC)c2)ccc1O`: the EC50 in assay [1] was > 100 µM; in assay [2], 18.6 µM.

With `OC[C@H]1O[C@@H](OCCc2ccc(O)c(O)c2)[C@H](O)[C@@H](O)[C@@H]1O`, the results for the EC50 in assay [1] and in assay [2] were 33 µM and 4.97 µM, respectively.

Turning to `COc1cc([C@H]2c3cc(O[C@@H]4O[C@H](CO)[C@@H](O)[C@H](O)[C@H]4O)c(OC)cc3C[C@@](O)(CO)[C@@H]2CO)ccc1O`, the figures for the EC50 in assay [1] and in assay [2] were > 100 µM and 39.3 µM, respectively.

As for `COc1cc(C[C@]2(O)CO[C@@H](c3ccc(O[C@H]4O[C@@H](CO)[C@H](O)[C@@H](O)[C@@H]4O)c(OC)c3)[C@@H]2CO)ccc1O`, the concentration giving a half-maximal response (EC50) in assay [1] and in assay [2] was > 100 µM in each case.

`COc1cc([C@@H]2OC[C@@](O)(Cc3ccc(O[C@@H]4O[C@H](CO)[C@@H](O)[C@H](O)[C@H]4O)c(OC)c3)[C@H]2CO)ccc1O`: the EC50 in assay [1] was > 100 µM; in assay [2], 25.3 µM.

As to `COc1cc(C[C@@H]2CO[C@@H](c3cc(OC)c(O)c(OC)c3)[C@@H]2CO)ccc1O[C@@H]1O[C@H](CO)[C@@H](O)[C@H](O)[C@H]1O` [ARMANDISIDE], the EC50 in assay [1] was > 100 µM; in assay [2] it was 10.6 µM.

In the case of `COc1cc(/C=C/C=O)ccc1O[C@@H]1O[C@H](CO)[C@@H](O)[C@H](O)[C@H]1O` [CONIFERYALDEHYDE GLUCOSIDE], the EC50 in assay [1] and in assay [2] was > 100 µM throughout.

Take `COc1cc(/C=C/CO[C@H]2O[C@@H](CO)[C@H](O)[C@@H](O)[C@@H]2O)cc(OC)c1O[C@@H]1O[C@H](CO)[C@@H](O)[C@H](O)[C@H]1O` [ISOSYRINGINOSIDE]: the EC50 in assay [1] was > 100 µM; in assay [2], 14.1 µM.

On to `C/C=C1/[C@H](O[C@@H]2O[C@H](CO)[C@@H](O)[C@H](O)[C@H]2O)OC=C(C(=O)OC)[C@H]1CC(=O)OC[C@H]1O[C@@H](O[C@@H]2OC=C(C(=O)OC)[C@@H](CC(=O)OCCc3ccc(O)c(O)c3)/C2=C\C)[C@H](O)[C@@H](O)[C@@H]1O` [JASPOLYOSIDE], for which the figures for the concentration giving a half-maximal response (EC50) in assay [1] and in assay [2] were > 100 µM and 4.97 µM, respectively.

Consider `C/C=C1/[C@H](O[C@@H]2O[C@H](CO)[C@@H](O)[C@H](O)[C@H]2O)OC=C(C(=O)OC)[C@H]1CC(=O)OCCc1ccc(O)cc1` [LIGSTROSIDE], for which the EC50 in assay [1] and in assay [2] was > 100 µM in each case.

As for `COc1cc([C@H]2OC[C@H]3[C@@H]2CO[C@@H]3c2cc(OC)c(O[C@@H]3O[C@H](CO)[C@@H](O)[C@H](O)[C@H]3O)c(OC)c2)cc(OC)c1O[C@H]1O[C@@H](CO)[C@H](O)[C@@H](O)[C@@H]1O` [LIRIODENDRTACHIOSIDE], the EC50 in assay [1] was > 100 µM; in assay [2] it was 16 µM.

As for `C/C=C1/[C@H](O[C@@H]2O[C@H](CO)[C@@H](O)[C@H](O)[C@H]2O)OC=C(C(=O)OC)[C@H]1CC(=O)OCCc1ccc(O)c(O)c1` [OLEUROPEIN], the EC50 worked out at 20.8 µM in assay [1] and 2.57 µM in assay [2].

As for `C/C=C1/[C@H](O[C@@H]2O[C@H](CO)[C@@H](O)[C@H](O)[C@H]2O)OC=C(C(=O)OC)[C@H]1CC(=O)OC[C@H]1O[C@@H](Oc2c(OC)cc(/C=C/CO)cc2OC)[C@H](O)[C@@H](O)[C@@H]1O` [RETICULOSIDE], the figures for the EC50 in assay [1] and in assay [2] were > 100 µM and 64.1 µM, respectively.

Take `OC[C@H]1O[C@@H](OCCc2ccc(O)cc2)[C@H](O)[C@@H](O)[C@@H]1O` [SALIDROSIDE]: the EC50 in assay [1] and in assay [2] was > 100 µM throughout.

Regarding `COc1cc(/C=C/C=O)cc(OC)c1O[C@@H]1O[C@H](CO)[C@@H](O)[C@H](O)[C@H]1O` [SINAPALDEHYDE GLUCOSIDE], the EC50 in assay [1] and in assay [2] was > 100 µM throughout.

On to `COc1cc(/C=C/CO)cc(OC)c1O[C@@H]1O[C@H](CO)[C@@H](O)[C@H](O)[C@H]1O` [SYRINGIN], for which the EC50 is > 100 µM in assay [1] and 70.9 µM in assay [2].
